Patent US20260276652A1, “METHODS FOR ASSESSING PLATELET FUNCTION” (UNIVERSITY OF READING, priority 2023, published 2026)
Entries after “also recorded” stand apart in the source; their conditions may differ.

Legend:
platelets in whole blood = test: In vitro thrombus formation on type I collagen, whole blood perfused at arterial shear rate; assay type: cell-based, human; conditions: patients with ischaemic heart disease, 6 minutes, 1000 s^-1, student's t-test
Experimental: Thrombus formation on immobilized type I collagen was performed using the VenaFlux Platform and Vena 8Fluor+Biochips (Cellix). Channels were coated overnight at 4° C. with collagen, then blocked with 1% BSA/PBS for 1 h and replaced with PBS. Blood was collected into sodium citrate (4% w/v). Platelets in whole blood were incubated with 10 mM DiOC6 (Thermo Fisher Scientific) for 10 min. Perfusion was performed at 37° C. with an arterial shear rate of 1000 s^−1 for at least 520 seconds. Thrombus formation was visualised using a 20× magnification lens on a Nikon A1-R confocal microscope. Images were brightness corrected and converted to a binary mask with software provided auto-thresholds. Binary Mask Particles were then analysed to determine thrombus count and size.

platelets = test: PPAnalysis flow cytometry assay of platelet sensitivity (p-selectin exposure) to CRP-XL in patients with ischaemic heart disease; assay type: cell-based, human; conditions: for sensitivity to CRP-XL of patients receiving aspirin compared with aspirin-free patients: patients with ischaemic heart disease, student's t-test
Experimental: The flow cytometry assay measured fluorescein isothiocyanate-conjugated anti-fibrinogen antibody and PE-Cy5-conjugated anti-P-selectin antibody binding following stimulation with ADP ([…]), collagen-related peptide (CRP; […]), epinephrine ([…]), thrombin receptor activator peptide 6 (TRAP-6; […]), and U46619 ([…]) using an Accuri C6 (B D, Winnersh, UK) for cohort 1 and a Beckman-Coulter EPICS Profile XL for cohort 2, as described in supplemental Section 2 of Dunster 2021 (Dunster et al. Multiparameter phenotyping of platelet reactivity for stratification of human cohorts, Blood Adv (2021) 5(20): 4017-4030).
A Platelet Phenomic Analysis (PPAnalysis) assay was carried out described in Dunster 2021. PPAnalysis comprises a flow cytometry-based assay and bespoke software that was developed to make data analysis simple, rapid, and reproducible. The assay simultaneously measures 2 aspects of platelet activation, fibrinogen binding (a marker of αllßb3 activation) and the exposure of P-selectin on the platelet surface (a marker of a-granule secretion). The supplementary information accompanying Dunster 2021 provides step-by-step instructions for setting up and carrying out the PPAnalysis assay and data analysis.

[1] = target: T1, glycoprotein VI (GPVI) receptor (Homo sapiens, UniProt Q9HCN6); conditions: Smethurst et al.; cited from earlier work
T1 sequence (Q9HCN6 21-339): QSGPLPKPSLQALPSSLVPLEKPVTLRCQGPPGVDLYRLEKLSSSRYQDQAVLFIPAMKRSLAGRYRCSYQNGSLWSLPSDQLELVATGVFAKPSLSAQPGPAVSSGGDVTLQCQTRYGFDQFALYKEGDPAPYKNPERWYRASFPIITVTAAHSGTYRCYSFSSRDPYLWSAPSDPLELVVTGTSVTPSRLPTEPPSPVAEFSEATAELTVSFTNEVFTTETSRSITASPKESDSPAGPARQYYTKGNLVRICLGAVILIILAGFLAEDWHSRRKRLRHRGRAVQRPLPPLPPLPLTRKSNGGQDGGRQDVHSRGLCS
T1 sequence (P30273 19-86 partner): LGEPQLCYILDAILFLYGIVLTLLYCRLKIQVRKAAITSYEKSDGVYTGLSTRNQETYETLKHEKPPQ

Compound | in vitro thrombus volume in patients with versus without aspirin (platelets in whole blood) | sensitivity to CRP-XL of patients receiving ASA (platelets; patients with ischaemic heart disease receiving ASA, mean ± spread, ASA free patients 7.4±0.49) | sensitivity to CRP-XL of patients receiving aspirin compared with aspirin-free patients (platelets) | sensitivity to CRP-XL of patients receiving aspirin compared with aspirin-free patients (platelets; listed as ASA) | platelet agonist potency compared with non-cross-linked CRP [1]
CC(=O)Oc1ccccc1C(=O)O [aspirin] | not reduced; also recorded: not significantly different | 7.2±0.37 log g/mL | lower sensitivity to CRP-XL | significantly lower | 
(GPC-(GPO)10-GPCG-amide)3 [CRP-XL] |  |  |  |  | more potent platelet agonist
